From US9862754B2, “Peptide analogs for treating diseases and disorders” (KeyBioscience AG, priority 2011, dated 2018)
Bridge positions count the residues as written; N and C are the ends. Ends that are not written are not given here.

Legend:
Type in all cases: in vivo, rat
[1] = Example 7: insulin tolerance test in Zucker Diabetic Fatty rats; conditions: ZDF rats; metformin 400 mg/kg/day oral, UGP302 5 μg/kg/day s.c.
Description: (§1) To assess the potential of UGP302 (SEQ ID NO: 15) in combination with metformin, Zucker Diabetic Fatty rats were used. At the age of 6 weeks 40 rats were randomized into four groups according to HbA1c, FPG and BW. The groups were: Control (Vehicle), Metformin 400 mg/kg/day, UGP302 5 μg/kg/day and the combination of the two molecules in the stated respective amounts. The treatments were given once daily, and metformin was dosed orally, while UGP302 was given subcutaneously, and the animals were treated for 8 weeks. Fasting blood glucose (FPG) and non-fasted blood glucose (PPG) were monitored biweekly, while HbA1c was measured at termination.
(§2) To further assess the effect of both single doses of each molecule and the combination of these at those same doses, the rats underwent an oral glucose tolerance test (OGTT, FIGS. 23A-23B) and an insulin tolerance test (ITT, FIGS. 24A-24B).

CTX-II = test: Example 6: serum CTX-II (Serum PC Cartilaps ELISA), cartilage degradation in DIO rats; conditions: 1 mg/kg p.o. with 150 mg/kg 5-CNAC, 2 hours after treatment, vs sCT
Description: (§3) The effect of sCT/calcitonin mimetic on bone and cartilage loss was studied in DIO rats. The animals were dosed as described in Table 6 below, and 2 hours after treatment blood sampling was done by heated tail venous puncture.
(§4) Serum CTX-I levels, as an indication of bone resorption, were measured using the RatLaps™ ELISA, and serum CTX-II levels, as an indication of cartilage degradation, were measured using the Serum PC Cartilaps™ ELISA.

[2] = Example 7: oral glucose tolerance test in Zucker Diabetic Fatty rats; conditions: ZDF rats; metformin 400 mg/kg/day oral, UGP302 5 μg/kg/day s.c.
Description: as §1, §2

CTX-I = test: Example 6: serum CTX-I (RatLaps ELISA), bone resorption in DIO rats; conditions: 1 mg/kg p.o. with 150 mg/kg 5-CNAC, 2 hours after treatment, vs sCT
Description: as §3, §4

[3] = Example 2: OGTT after 3 days of oral treatment in DIO rats; conditions: 0.5, 1 and 2 mg/kg p.o. b.i.d. 3 days prior to OGTT, cross-over, vs oral vehicle
Description: Drug administration were given by per oral (p.o.) gavage b.i.d. during the study period and as single dose in the morning prior to start of OGTT.
(§5) Animals were given 2 g/kg single dose dissolved in milliQ H20.
Following the initial (1st) OGTT, animals are randomized into treatment groups based on FBG and BW. Animals will be pre-treated 3 days (b.i.d.) prior to 2nd OGTT. Dosing will be performed in the morning (7-8 am) and afternoon (3-4 pm).
The study was performed in an x-over design with each animal being its own control.
(§6) OGTT Following Overnight Fasting (16 h):
Whole blood glucose levels were determined with an ACCU-CHEK® Avia blood glucose meter (Roche Diagnostics, Rotkreuz, Switzerland). […]
Statistical analysis was performed by one-way ANOVA followed by the Dunnett's post hoc test for multiple comparison. […] Incremental area under curve (iAUC) during OGTT was calculated by the trapezoidal method. […]
Three different doses of oral sCT/calcitonin mimetic 1 containing 0.5, 1 and 2 mg/kg compound were applied by gavage twice daily to 4 groups of rats for 3 days prior to OGTT. […] FIG. 7A and FIG. 7B show the effect of oral sCT versus oral UGP 302 at a first dosage on glucose tolerance during OGTT in DIO rats as measured in Example 2. FIG. 8A and FIG. 8B show the effect of oral sCT versus oral UGP 302 at a second dosage on glucose tolerance during OGTT in DIO rats as measured in Example 2.

[4] = Example 1: OGTT after 2 weeks of oral treatment in DIO rats; conditions: after 2 weeks of treatment, overnight fasting, 1 mg/kg p.o., vs oral vehicle
Description: Drug administration by per oral (p.o.) gavage b.i.d. (7-8 am and 3-4 pm) during the study period and as single dose in the morning prior to start of OGTT.
as §5, §6
Blood sampling and glycemia were measured by heated tail venous puncture.
Whole blood glucose levels were determined with an ACCU-CHEK® Avia blood glucose meter (Roche Diagnostics, Rotkreuz, Switzerland). Blood (approx 300 ul) is collected in 1 ml MiniCollect K3EDTA plasma-tube (Greiner-Bio-One GmbH, Frickenhausen, Germany), inverted, and stored on ice. Tubes are centrifuged 3000×g (5000 rpm in table centrifuge) for 10 min at 4° C. and plasma obtained. Plasma samples are stored at −20° C. until analysis. A total of ˜2.5 ml blood is obtained during OGTT (˜0.3% of body weight).
Statistical analysis was performed by one-way ANOVA followed by the Dunnett's post hoc test for multiple comparison. Student's t-test was performed to compare two paired group. All analysis was performed using GRAPHPAD PRISM software (GraphPad Prism, San Diego, Calif. U.S.A). Incremental area under curve (iAUC) during OGTT was calculated by the trapezoidal method. A value of P<0.05 was considered to be significant. All data are presented as mean±standard error of the mean (SEM). […]

Substance	insulin tolerance (ITT) [1]	cartilage degradation (serum CTX-II levels) (CTX-II)	glucose tolerance (OGTT) [2]	bone resorption (serum CTX-I levels) (CTX-I)	glucose iAUC during OGTT [3]	glucose iAUC during OGTT [4]
Ac-CSNLSTCVLGKLSQELHKLQTYPRTDVGANAP-NH2 (Ac-CSNLSTCVLGKLSQELHKLQTYPRTDVGANAP-NH2; ends and bridges not checked) [UGP302, calcitonin mimetic]	individually improve	stronger effect in reduction	individually improve	stronger effect in reduction		
salmon calcitonin (CSNLSTCVLGKLSQELHKLQTYPRTNTGSGTP-NH2; disulfide 1-7; ends not checked) [sCT, reference compound]					significantly reduced glucose iAUC	significantly reduced glucose iAUC
